# Assay results: patent US10722495B2, “Cyanoindazole compounds and uses thereof” (Incyte Corporation, priority 2017, dated 2020)
# Biological target: HPK1 (Homo sapiens (Human), UniProt Q92918)
# Assay: HPK1 Kinase Binding Assay
# Settings: active HPK1 (SignalChem M23-11G), tracer 222, LanthaScreen Eu-Anti GST antibody, one hour incubation at 25° C.
# Procedure: Example A. HPK1 Kinase Binding Assay
# A stock solution of 1 mM test compound was prepared in DMSO. The compound plate was prepared by 3-fold and 11-point serial dilutions. 0.1 μL of the compound in DMSO was transferred from the compound plate to the white 384 well polystyrene plates. The assay buffer contained 50 mM HEPES, pH 7.5, 0.01% Tween-20, 5 mM MgCl2, 0.01% BSA, and 5 mM DTT. 5 μl of 4 nM active HPK1 (SignalChem M23-11G) prepared in the buffer was added to the plate. The enzyme concentration given was based on the given stock concentration reported by the vender. 5 μl of 18 nM tracer 222 (ThermoFisher PV6121) and 4 nM LanthaScreen Eu-Anti GST antibody (ThermoFisher PV5595) were added. After one hour incubation at 25° C., the plates were read on a PHERAstar FS plate reader (BMG Labtech). Ki values were determined.
# HPK1, sequence (Q92918 1-346): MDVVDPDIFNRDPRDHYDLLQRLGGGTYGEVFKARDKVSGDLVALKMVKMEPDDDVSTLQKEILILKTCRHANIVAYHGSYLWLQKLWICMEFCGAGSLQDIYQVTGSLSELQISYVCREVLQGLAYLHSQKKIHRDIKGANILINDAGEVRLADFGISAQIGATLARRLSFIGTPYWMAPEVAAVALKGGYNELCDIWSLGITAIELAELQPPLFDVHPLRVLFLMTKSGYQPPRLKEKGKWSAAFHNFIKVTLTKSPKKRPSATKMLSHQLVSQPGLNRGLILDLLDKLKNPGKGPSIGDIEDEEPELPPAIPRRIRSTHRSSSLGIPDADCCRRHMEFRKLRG
row,Ki,SMILES
1,≤ 100 nM,"CNCc1cc(C)c(-c2cc3c(-c4ccc(OC)cc4)n[nH]c3cc2C#N)c(F)c1 [Example 13, 5-(2-Fluoro-6-methyl-4-((methylamino)methyl)phenyl)-3-(4-methoxyphenyl)-1H-indazole-6-carbonitrile]"
2,≤ 100 nM,"CNCc1cc(C)c(-c2cc3c(-c4ccc(NC(C)=O)nc4)n[nH]c3cc2C#N)c(F)c1 [Example 29, N-(5-(6-Cyano-5-(2-fluoro-6-methyl-4-((methylamino)methyl)phenyl)-1H-indazol-3-yl)pyridin-2-yl)acetamide]"
3,≤ 100 nM,"CNCc1cc(C)c(-c2cc3c(-c4cnn(C)c4)n[nH]c3cc2C#N)c(F)c1 [Example 26, 5-(2-Fluoro-6-methyl-4-((methylamino)methyl)phenyl)-3-(1-methyl-1H-pyrazol-4-yl)-1H-indazole-6-carbonitrile]"
4,≤ 100 nM,"CNCc1cc(C)c(-c2cc3c(-c4cnn(C(C)C)c4)n[nH]c3cc2C#N)c(F)c1 [Example 6, 5-(2-Fluoro-6-methyl-4-((methylamino)methyl)phenyl)-3-(1-isopropyl-1H-pyrazol-4-yl)-1H-indazole-6-carbonitrile]"
5,≤ 100 nM,"CNCc1cc(C)c(-c2cc3c(-c4cccc(N5CCC(O)CC5)n4)n[nH]c3cc2C#N)c(F)c1 [Example 45, 5-(2-Fluoro-6-methyl-4-((methylamino)methyl)phenyl)-3-(6-(4-hydroxypiperidin-1-yl)pyridin-2-yl)-1H-indazole-6-carbonitrile]"
6,≤ 100 nM,"CNCc1cc(C)c(-c2cc3c(-c4cccc(N5CCN(C)CC5)n4)n[nH]c3cc2C#N)c(F)c1 [Example 46, 5-(2-Fluoro-6-methyl-4-((methylamino)methyl)phenyl)-3-(6-(4-methylpiperazin-1-yl)pyridin-2-yl)-1H-indazole-6-carbonitrile]"
7,≤ 100 nM,"CNCc1cc(C)c(-c2cc3c(-c4cnsc4)n[nH]c3cc2C#N)c(F)c1 [Example 37, 5-(2-Fluoro-6-methyl-4-((methylamino)methyl)phenyl)-3-(isothiazol-4-yl)-1H-indazole-6-carbonitrile]"
8,≤ 100 nM,"CNCc1cc(C)c(-c2cc3c(-c4ccc(N5CCOCC5)nc4)n[nH]c3cc2C#N)c(F)c1 [Example 28, 5-(2-Fluoro-6-methyl-4-((methylamino)methyl)phenyl)-3-(6-morpholinopyridin-3-yl)-1H-indazole-6-carbonitrile]"
9,≤ 100 nM,"CNCc1cc(C)c(-c2cc3c(-c4cnoc4)n[nH]c3cc2C#N)c(F)c1 [Example 38, 5-(2-Fluoro-6-methyl-4-((methylamino)methyl)phenyl)-3-(isoxazol-4-yl)-1H-indazole-6-carbonitrile]"
10,≤ 100 nM,"CNCc1cc(C)c(-c2cc3c(-c4ccc(C(=O)N(C)C)cc4)n[nH]c3cc2C#N)c(F)c1 [Example 9, 4-(6-Cyano-5-(2-fluoro-6-methyl-4-((methylamino)methyl)phenyl)-1H-indazol-3-yl)-N,N-dimethylbenzamide]"
11,≤ 100 nM,"CNCc1cc(C)c(-c2cc3c(-c4ccc(N5CCN(C(C)=O)CC5)nc4)n[nH]c3cc2C#N)c(F)c1 [Example 30, 3-(6-(4-Acetylpiperazin-1-yl)pyridin-3-yl)-5-(2-fluoro-6-methyl-4-((methylamino)methyl)phenyl)-1H-indazole-6-carbonitrile]"
12,≤ 100 nM,"CNCc1cc(C)c(-c2cc3c(-c4ccc(N5CC(CO)C5)nc4)n[nH]c3cc2C#N)c(F)c1 [Example 44, 5-(2-Fluoro-6-methyl-4-((methylamino)methyl)phenyl)-3-(6-(3-(hydroxymethyl)azetidin-1-yl)pyridin-3-yl)-1H-indazole-6-carbonitrile]"
13,≤ 100 nM,"CNCc1cc(C)c(-c2cc3c(-c4ccc(C5CCOCC5)nc4)n[nH]c3cc2C#N)c(F)c1 [Example 32, 5-(2-Fluoro-6-methyl-4-((methylamino)methyl)phenyl)-3-(6-(tetrahydro-2H-pyran-4-yl)pyridin-3-yl)-1H-indazole-6-carbonitrile]"
14,≤ 100 nM,"CNCc1cc(C)c(-c2cc3c(-c4cnn(CC(F)(F)F)c4)n[nH]c3cc2C#N)c(F)c1 [Example 3, 5-(2-Fluoro-6-methyl-4-((methylamino)methyl)phenyl)-3-(1-(2,2,2-trifluoroethyl)-1H-pyrazol-4-yl)-1H-indazole-6-carbonitrile]"
15,≤ 100 nM,"CNCc1cc(C)c(-c2cc3c(-c4cnco4)n[nH]c3cc2C#N)c(F)c1 [Example 36, 5-(2-Fluoro-6-methyl-4-((methylamino)methyl)phenyl)-3-(oxazol-5-yl)-1H-indazole-6-carbonitrile]"
16,≤ 100 nM,"CNCc1cc(C)c(-c2cc3c(-c4ccc(C(=O)NC(C)C)cc4Cl)n[nH]c3cc2C#N)c(F)c1 [Example 22, 3-Chloro-4-(6-cyano-5-(2-fluoro-6-methyl-4-((methylamino)methyl)phenyl)-1H-indazol-3-yl)-N-isopropylbenzamide]"
17,≤ 100 nM,"CNCc1cc(C)c(-c2cc3c(-c4ccc(S(=O)(=O)C(C)C)cc4)n[nH]c3cc2C#N)c(F)c1 [Example 25, 5-(2-Fluoro-6-methyl-4-((methylamino)methyl)phenyl)-3-(4-(isopropylsulfonyl)phenyl)-1H-indazole-6-carbonitrile]"
18,≤ 100 nM,"CNCc1cc(C)c(-c2cc3c(-c4cccc(N5CC[C@H](N(C)C)C5)n4)n[nH]c3cc2C#N)c(F)c1 [Example 47, 3-(6-((S)-3-(Dimethylamino)pyrrolidin-1-yl)pyridin-2-yl)-5-(2-fluoro-6-methyl-4-((methylamino)methyl)phenyl)-1H-indazole-6-carbonitrile]"
19,≤ 100 nM,"CNCc1cc(C)c(-c2cc3c(-c4cccc(OC)c4)n[nH]c3cc2C#N)c(F)c1 [Example 12, 5-(2-Fluoro-6-methyl-4-((methylamino)methyl)phenyl)-3-(3-methoxyphenyl)-1H-indazole-6-carbonitrile]"
20,≤ 100 nM,"CNCc1cc(C)c(-c2cc3c(-c4ccc(C(=O)N(C)C)c(F)c4)n[nH]c3cc2C#N)c(F)c1 [Example 21, 4-(6-Cyano-5-(2-fluoro-6-methyl-4-((methylamino)methyl)phenyl)-1H-indazol-3-yl)-2-fluoro-N,N-dimethylbenzamide]"
21,≤ 100 nM,"CNCc1cc(C)c(-c2cc3c(-c4ccc(CC#N)cc4)n[nH]c3cc2C#N)c(F)c1 [Example 16, 3-(4-(Cyanomethyl)phenyl)-5-(2-fluoro-6-methyl-4-((methylamino)methyl)phenyl)-1H-indazole-6-carbonitrile]"
22,≤ 100 nM,"CNCc1cc(C)c(-c2cc3c(-c4ccc(S(C)(=O)=O)cc4)n[nH]c3cc2C#N)c(F)c1 [Example 18, 5-(2-Fluoro-6-methyl-4-((methylamino)methyl)phenyl)-3-(4-(methylsulfonyl)phenyl)-1H-indazole-6-carbonitrile]"
23,≤ 100 nM,"Cn1cc(-c2n[nH]c3cc(C#N)c(-c4ccccc4F)cc23)cn1 [Example 49, 5-(2-Fluorophenyl)-3-(1-methyl-1H-pyrazol-4-yl)-1H-indazole-6-carbonitrile]"
24,≤ 100 nM,"Cc1cccc(F)c1-c1cc2c(-c3cnn(C)c3)n[nH]c2cc1C#N [Example 51, 5-(2-Fluoro-6-methylphenyl)-3-(1-methyl-1H-pyrazol-4-yl)-1H-indazole-6-carbonitrile]"
25,≤ 100 nM,"CNCc1cc(C)c(-c2cc3c(-c4ccc(NC(C)=O)cc4)n[nH]c3cc2C#N)c(F)c1 [Example 10, N-(4-(6-Cyano-5-(2-fluoro-6-methyl-4-((methylamino)methyl)phenyl)-1H-indazol-3-yl)phenyl)acetamide]"
